Ki data for 3 molecules are collected here from patent publication US7361682B2, “Indole derivatives as H3 inverse agonists” (Hoffmann-La Roche Inc., priority 2004, dated 2008).

For the assay, the target named is T1, histamine 3 receptor (H3R) (Homo sapiens, UniProt Q9Y5N1).
T1 construct: expressed in transfected cells; host or cells: CHO cells
Description: Binding assay with 3H-(R)α-methylhistamine (competition binding, membranes of human HR3-CHO cell line). The conditions noted are these: competition against 3H(R)α-Methylhistamine (1 nM), membrane of the human HR3-CHO cell line; Ki calculated from IC50 by Cheng-Prusoff equation. On the procedure: Binding assay with ^3H-(R)α-methylhistamine
Saturation binding experiments were performed using HR^3—CHO membranes prepared as described in Takahashi, K, Tokita, S., Kotani, H. (2003) J. Pharmacol. Exp. Therapeutics 307, 213-218.
An appropriate amount of membrane (60 to 80 μg protein/well) was incubated with increasing concentrations of ^3H(R)α-Methylhistamine di-hydrochloride (0.10 to 10 nM). Non specific binding was determined using a 200 fold excess of cold (R)α-Methylhistamine dihydrobromide (500 nM final concentration). The incubation was carried out at room temperature (in deep-well plates shaking for three hours). The final volume in each well was 250 μl. The incubation was followed by rapid filtration on GF/B filters (pre-soaked with 100 μl of 0.5% PEI in Tris 50 mM shaking at 200 rpm for two hours). The filtration was made using a cell-harvester and the filter plates were then washed five times with ice cold washing buffer containing 0.5 M NaCl. After harvesting, the plates were dried at 55° C. for 60 min, then we added scintillation fluid (Microscint 40, 40 microl in each well) and the amount of radioactivity on the filter was determined in Packard top-counter after shaking the plates for two hours at 200 rpm at room temperature.
Binding Buffer: 50 mM Tris-HCl pH 7.4 and 5 mM MgCl2×6H2O pH 7.4. Washing Buffer: 50 mM Tris-HCl pH 7.4 and 5 mM MgCl2×6H2O and 0.5 M NaCl pH 7.4.
Indirect measurement of affinity of H3R inverse agonists: twelve increasing concentrations (ranging from 10 μM to 0.3 nM) of the selected compounds were always tested in competition binding experiments using membrane of the human HR3—CHO cell line. An appropriate amount of protein, e.g. approximately 500 cpm binding of RAMH at Kd, were incubated for 1 hour at room temperature in 250 μl final volume in 96-well plates in presence of ^3H(R)α-Methylhistamine (1 nM final concentration=Kd). […]
All compounds were tested at a single concentration in duplicates. […] Ki's were calculated from IC50 based on Cheng-Prusoff equation (Cheng, Y, Prusoff, W H (1973) Biochem Pharmacol 22, 3099-3108).

T1 sequence (Q9Y5N1 whole entry): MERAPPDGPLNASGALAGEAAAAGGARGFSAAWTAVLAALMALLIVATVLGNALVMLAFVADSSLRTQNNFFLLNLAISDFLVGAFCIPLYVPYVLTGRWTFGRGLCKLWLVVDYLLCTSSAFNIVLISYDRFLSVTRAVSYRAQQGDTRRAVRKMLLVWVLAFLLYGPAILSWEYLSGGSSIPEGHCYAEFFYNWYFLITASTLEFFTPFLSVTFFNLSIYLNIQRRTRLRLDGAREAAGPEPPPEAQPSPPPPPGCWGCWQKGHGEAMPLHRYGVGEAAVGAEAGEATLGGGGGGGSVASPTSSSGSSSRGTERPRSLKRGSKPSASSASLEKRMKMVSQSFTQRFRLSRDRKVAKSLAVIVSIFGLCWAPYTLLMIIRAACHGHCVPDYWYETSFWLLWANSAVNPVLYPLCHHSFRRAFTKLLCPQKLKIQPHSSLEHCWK

In general, Ki refers to the equilibrium dissociation constant of an inhibitor or competing ligand from its target. Take `CC(C)N1CCC(Oc2ccc3[nH]c(C(=O)N4CCOCC4)cc3c2)C1` (stereo not drawn) [Example 2, [5-(1-Isopropyl-pyrrolidin-3-yloxy)-1H-indol-2-yl]-morpholin-4-yl-methanone]: the Ki was 0.023 µM.
Regarding `CC(C)N1CCN(C(=O)c2cc3cc(OCCC4CCCN4C)ccc3[nH]2)CC1` (stereo not drawn) [Example 117, (4-Isopropyl-piperazin-1-yl)-{5-[2-(1-methyl-pyrrolidin-2-yl)-ethoxy]-1H-indol-2-yl}-methanone], the Ki is 0.077 µM.
Regarding `CC(C)N1CCC(Oc2ccc3cc(C(=O)N4CCSCC4)[nH]c3c2)CC1` [Example 140, [6-(1-isopropyl-piperidin-4-yloxy)-1H-indol-2-yl]-thiomorpholin-4-yl-methanone], the Ki was 0.093 µM.
